SMILES strings stand for the structures.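 Five compound concentrations were applied to cells in 96-well plates for 48 hours; endpoints were derived by simple linear interpolation of the resulting dose-response curve. Abbreviation: GI50, concentration required for 50% inhibition of growth. TGI marks complete inhibition of growth.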

For the first assay, the system named is BT-549 breast. Nature of the assay: NCI-60 cell line screen, 48 h.
Consider `OCC#Cc1ccccc1C#Cc1ccccc1`, for which the GI50 is 13.2 µM and the TGI is 27.8 µM.

In turn, `NS(=O)(=O)c1cc(Br)c(N=Nc2ccc(O)c3ncccc23)c(Br)c1` registered a TGI of over 100 µM.

For `COc1ccc(-c2nnc(COc3ccc(C(=O)/C=C/c4ccco4)cc3)o2)cc1`, the GI50 was 2.87 µM and the TGI is 8.16 µM.

In turn, `OCc1ccc(-c2ccc(-c3ccc(CO)s3)o2)s1` registered a TGI of 50.7 µM.

Consider `O=C(Nc1ccc(Cl)cc1)c1cccc(NC2=C(Cl)C(=O)N(Cc3ccccc3)C2=O)c1`, for which the GI50 is 2.16 µM and the TGI worked out at 13.2 µM.

`O=C(/C=C/c1ccncc1)c1cc(Cl)ccc1O`: the GI50 is 16.6 µM and the TGI was determined as 31.1 µM.

Regarding `Cc1cc(/C=C/c2ccc3cc(N(C)C)ccc3[n+]2C)c(C)n1-c1ccccc1`, the GI50 was 0.159 µM and the TGI was determined as 1.09 µM.

Regarding `CC[C@H](Nc1ncnc2nc[nH]c12)c1oc2ccccc2c(=O)c1-c1cccc(F)c1`, the GI50 was 21.1 µM and the TGI is over 100 µM.

Compound `Cc1ccc(S(=O)(=O)Nc2ccccc2C(=O)c2ccc(C)c(C)c2)cc1` registered a TGI of over 100 µM.

The compound `COC1=CC(=O)C(C2CC(=O)c3c(O)cc(O)cc3O2)=CC1=O` (stereo not given) came in with a TGI of 42.9 µM.

`CC(C)C(C)/C=C\C(C)C1CCC2C3=CC=C4CC(O)CCC4(C)C3CCC21C` (stereo not given) showed a TGI of over 85.6 µM.

For the compound `Cc1cc2c(cc1Cl)SC(N(N(C)C)S(=O)(=O)c1ccc(Cl)cc1)=NS2(=O)=O`, the GI50 was 19.4 µM and the TGI stood at 48.7 µM.

With `Nc1ncnc2n[nH]c(Nc3ccc(F)cc3)c12`, the GI50 was 56.7 µM and the TGI is over 100 µM.

`CCOC(=O)c1cc2nc3ccccc3c(=O)n2c2ccccc12` showed a TGI of over 10 µM.

Turning to `Cc1cc(I)cc(CN(C)CCCN2CCCCC2)c1O`, the GI50 was 10.7 µM and the TGI stood at 22.9 µM.

Take `COc1cccc(-c2nc(-c3ccc(NC(=O)C(C)C)cc3)[nH]c2-c2ccnc(Br)c2)c1`: the GI50 was 2.04 µM and the TGI came to 80.1 µM.

In another assay the test system is CAKI-1 renal. The assay is described as follows: NCI-60 cell line screen, 48 h.
Take `OCC#Cc1ccccc1C#Cc1ccccc1`: the GI50 was 12.2 µM and the TGI was 25.5 µM.

Turning to `NS(=O)(=O)c1cc(Br)c(N=Nc2ccc(O)c3ncccc23)c(Br)c1`, the TGI is over 100 µM.

`COc1ccc(-c2nnc(COc3ccc(C(=O)/C=C/c4ccco4)cc3)o2)cc1`: the GI50 was 6.11 µM and the TGI was determined as 19.7 µM.

As to `OCc1ccc(-c2ccc(-c3ccc(CO)s3)o2)s1`, the TGI is 0.061 µM.

`O=C(Nc1ccc(Cl)cc1)c1cccc(NC2=C(Cl)C(=O)N(Cc3ccccc3)C2=O)c1`: the GI50 was 3.5 µM and the TGI was 15.7 µM.

Regarding `O=C(/C=C/c1ccncc1)c1cc(Cl)ccc1O`, the GI50 was 14.3 µM and the TGI worked out at 38.5 µM.

For the compound `Cc1cc(/C=C/c2ccc3cc(N(C)C)ccc3[n+]2C)c(C)n1-c1ccccc1`, the GI50 was 0.722 µM and the TGI was 2.24 µM.

Regarding `CC[C@H](Nc1ncnc2nc[nH]c12)c1oc2ccccc2c(=O)c1-c1cccc(F)c1`, the GI50 is 14.7 µM and the TGI is over 100 µM.

The compound `Cc1ccc(S(=O)(=O)Nc2ccccc2C(=O)c2ccc(C)c(C)c2)cc1` registered a TGI of over 100 µM.

In the case of `COC1=CC(=O)C(C2CC(=O)c3c(O)cc(O)cc3O2)=CC1=O` (stereo not given), the TGI is 33.1 µM.

Regarding `CC(C)C(C)/C=C\C(C)C1CCC2C3=CC=C4CC(O)CCC4(C)C3CCC21C` (stereo not given), the TGI was over 60.4 µM.

As for `Cc1cc2c(cc1Cl)SC(N(N(C)C)S(=O)(=O)c1ccc(Cl)cc1)=NS2(=O)=O`, the GI50 is 30.5 µM and the TGI amounted to 66.6 µM.

For the compound `Nc1ncnc2n[nH]c(Nc3ccc(F)cc3)c12`, the GI50 was 4.05 µM and the TGI is over 100 µM.

For `CCOC(=O)c1cc2nc3ccccc3c(=O)n2c2ccccc12`, the TGI is over 10 µM.

On to `Cc1cc(I)cc(CN(C)CCCN2CCCCC2)c1O`, for which the GI50 was 17 µM and the TGI turned out to be 35.3 µM.

`COc1cccc(-c2nc(-c3ccc(NC(=O)C(C)C)cc3)[nH]c2-c2ccnc(Br)c2)c1`: the GI50 was 2.73 µM and the TGI was over 100 µM.

Another assay has as its system DU-145 prostate. The assay is described as follows: NCI-60 cell line screen, 48 h.
With `OCC#Cc1ccccc1C#Cc1ccccc1`, the GI50 is 14.9 µM and the TGI amounted to 28.2 µM.

Compound `NS(=O)(=O)c1cc(Br)c(N=Nc2ccc(O)c3ncccc23)c(Br)c1` gave a TGI of over 100 µM.

For the compound `COc1ccc(-c2nnc(COc3ccc(C(=O)/C=C/c4ccco4)cc3)o2)cc1`, the GI50 was 2.33 µM and the TGI was 5.72 µM.

For the compound `OCc1ccc(-c2ccc(-c3ccc(CO)s3)o2)s1`, the TGI was found to be 66.5 µM.

Consider `O=C(Nc1ccc(Cl)cc1)c1cccc(NC2=C(Cl)C(=O)N(Cc3ccccc3)C2=O)c1`, for which the GI50 is 6.39 µM and the TGI is 19.7 µM.

For the compound `O=C(/C=C/c1ccncc1)c1cc(Cl)ccc1O`, the GI50 was 17.4 µM and the TGI was 31.5 µM.

`Cc1cc(/C=C/c2ccc3cc(N(C)C)ccc3[n+]2C)c(C)n1-c1ccccc1`: the GI50 is 0.175 µM and the TGI was found to be 0.846 µM.

Take `CC[C@H](Nc1ncnc2nc[nH]c12)c1oc2ccccc2c(=O)c1-c1cccc(F)c1`: the GI50 is 26.9 µM and the TGI was over 100 µM.

As to `Cc1ccc(S(=O)(=O)Nc2ccccc2C(=O)c2ccc(C)c(C)c2)cc1`, the TGI is over 100 µM.

`COC1=CC(=O)C(C2CC(=O)c3c(O)cc(O)cc3O2)=CC1=O` (stereo not given) yielded a TGI of 35.3 µM.

`CC(C)C(C)/C=C\C(C)C1CCC2C3=CC=C4CC(O)CCC4(C)C3CCC21C` (stereo not given) showed a TGI of over 100 µM.

`Cc1cc2c(cc1Cl)SC(N(N(C)C)S(=O)(=O)c1ccc(Cl)cc1)=NS2(=O)=O`: the GI50 is 27.8 µM and the TGI was 99.4 µM.

Consider `Nc1ncnc2n[nH]c(Nc3ccc(F)cc3)c12`, for which the GI50 was 9.33 µM and the TGI was 42.1 µM.

Take `CCOC(=O)c1cc2nc3ccccc3c(=O)n2c2ccccc12`: the TGI was over 10 µM.

For the compound `Cc1cc(I)cc(CN(C)CCCN2CCCCC2)c1O`, the GI50 is 16.7 µM and the TGI turned out to be 33.8 µM.

As to `COc1cccc(-c2nc(-c3ccc(NC(=O)C(C)C)cc3)[nH]c2-c2ccnc(Br)c2)c1`, the GI50 was 3.86 µM and the TGI was over 100 µM.

The test system of another assay is HOP-62 NSCLC. The assay is described as follows: NCI-60 cell line screen, 48 h.
`OCC#Cc1ccccc1C#Cc1ccccc1`: the GI50 is 13.9 µM and the TGI was found to be 26.8 µM.

For the compound `NS(=O)(=O)c1cc(Br)c(N=Nc2ccc(O)c3ncccc23)c(Br)c1`, the TGI is over 100 µM.

`COc1ccc(-c2nnc(COc3ccc(C(=O)/C=C/c4ccco4)cc3)o2)cc1`: the GI50 was 2.5 µM and the TGI was determined as 7.23 µM.

`OCc1ccc(-c2ccc(-c3ccc(CO)s3)o2)s1` gave a TGI of 17.2 µM.

Turning to `O=C(Nc1ccc(Cl)cc1)c1cccc(NC2=C(Cl)C(=O)N(Cc3ccccc3)C2=O)c1`, the GI50 was 10.3 µM and the TGI amounted to 22 µM.

Consider `O=C(/C=C/c1ccncc1)c1cc(Cl)ccc1O`, for which the GI50 was 18.3 µM and the TGI was 43.8 µM.

Regarding `Cc1cc(/C=C/c2ccc3cc(N(C)C)ccc3[n+]2C)c(C)n1-c1ccccc1`, the GI50 is 0.191 µM and the TGI stood at 1.03 µM.

Regarding `CC[C@H](Nc1ncnc2nc[nH]c12)c1oc2ccccc2c(=O)c1-c1cccc(F)c1`, the GI50 was 33.8 µM and the TGI was over 100 µM.

`Cc1ccc(S(=O)(=O)Nc2ccccc2C(=O)c2ccc(C)c(C)c2)cc1`: the TGI was over 100 µM.

The compound `COC1=CC(=O)C(C2CC(=O)c3c(O)cc(O)cc3O2)=CC1=O` (stereo not given) had a TGI of 34.8 µM.

For `CC(C)C(C)/C=C\C(C)C1CCC2C3=CC=C4CC(O)CCC4(C)C3CCC21C` (stereo not given), the TGI is over 79.5 µM.

As to `Cc1cc2c(cc1Cl)SC(N(N(C)C)S(=O)(=O)c1ccc(Cl)cc1)=NS2(=O)=O`, the GI50 is 29.6 µM and the TGI came to 96.1 µM.

Turning to `Nc1ncnc2n[nH]c(Nc3ccc(F)cc3)c12`, the GI50 is 64.8 µM and the TGI is over 100 µM.

In turn, `CCOC(=O)c1cc2nc3ccccc3c(=O)n2c2ccccc12` had a TGI of over 10 µM.

Regarding `Cc1cc(I)cc(CN(C)CCCN2CCCCC2)c1O`, the GI50 is 13.7 µM and the TGI was 27 µM.

For the compound `COc1cccc(-c2nc(-c3ccc(NC(=O)C(C)C)cc3)[nH]c2-c2ccnc(Br)c2)c1`, the GI50 was 3.44 µM and the TGI was over 100 µM.

For a further assay, the system named is MDA-MB-435. Nature of the assay: NCI-60 cell line screen, 48 h.
With `OCC#Cc1ccccc1C#Cc1ccccc1`, the GI50 was 14.2 µM and the TGI turned out to be 28.1 µM.

In turn, `NS(=O)(=O)c1cc(Br)c(N=Nc2ccc(O)c3ncccc23)c(Br)c1` showed a TGI of over 100 µM.

As to `COc1ccc(-c2nnc(COc3ccc(C(=O)/C=C/c4ccco4)cc3)o2)cc1`, the GI50 is 2.13 µM and the TGI stood at 5.08 µM.

`OCc1ccc(-c2ccc(-c3ccc(CO)s3)o2)s1`: the TGI is 17.3 µM.

As for `O=C(Nc1ccc(Cl)cc1)c1cccc(NC2=C(Cl)C(=O)N(Cc3ccccc3)C2=O)c1`, the GI50 was 23.9 µM and the TGI is over 100 µM.

`O=C(/C=C/c1ccncc1)c1cc(Cl)ccc1O`: the GI50 is 17.1 µM and the TGI stood at 41 µM.

As to `Cc1cc(/C=C/c2ccc3cc(N(C)C)ccc3[n+]2C)c(C)n1-c1ccccc1`, the GI50 is 0.177 µM and the TGI worked out at 0.8 µM.

Take `CC[C@H](Nc1ncnc2nc[nH]c12)c1oc2ccccc2c(=O)c1-c1cccc(F)c1`: the GI50 is 18.7 µM and the TGI came to 70.7 µM.

Compound `Cc1ccc(S(=O)(=O)Nc2ccccc2C(=O)c2ccc(C)c(C)c2)cc1` had a TGI of over 100 µM.

In turn, `COC1=CC(=O)C(C2CC(=O)c3c(O)cc(O)cc3O2)=CC1=O` (stereo not given) had a TGI of 31.6 µM.

Take `CC(C)C(C)/C=C\C(C)C1CCC2C3=CC=C4CC(O)CCC4(C)C3CCC21C` (stereo not given): the TGI is over 83.5 µM.

`Cc1cc2c(cc1Cl)SC(N(N(C)C)S(=O)(=O)c1ccc(Cl)cc1)=NS2(=O)=O`: the GI50 was 33.2 µM and the TGI is over 100 µM.

For the compound `Nc1ncnc2n[nH]c(Nc3ccc(F)cc3)c12`, the GI50 was 19.7 µM and the TGI came out at 49.6 µM.

Take `CCOC(=O)c1cc2nc3ccccc3c(=O)n2c2ccccc12`: the TGI is over 10 µM.

Take `Cc1cc(I)cc(CN(C)CCCN2CCCCC2)c1O`: the GI50 is 15 µM and the TGI amounted to 33.4 µM.

With `COc1cccc(-c2nc(-c3ccc(NC(=O)C(C)C)cc3)[nH]c2-c2ccnc(Br)c2)c1`, the GI50 is 3.12 µM and the TGI is over 100 µM.

Source of the values: PubChem BioAssay (NCI).
